US20250143299A1, “METHODS AND COMPOSITIONS FOR CONTROLLING PESTS IN VEGETABLES” (Globachem NV, priority 2022, published 2025)

Tested on: Spodoptera exigua
Assay: Example 1 tomato plot trial, Spodoptera exigua (beet armyworm) control
Assay type: in vivo
Details: appl. A, 15 DAA
Protocol: Tomato—Spodoptera exigua (Beet Armyworm)
Trial conducted in 4 replicates on plots of 10 plants each. Application A was made at the occurrence of the insects.
The statistical design of this study was a completely randomized blocks design including 4 replicates. The homogeneity of variance was tested for all treatments and assessment dates by means of the Bartlett's test. In order to study the effect of the applied treatments for each assessment data, means were compared using Student-Newman-Keuls (p=0.05).

With `CCCCCCCCC(=O)O` [PA, pelargonic acid] the “Damage severity (1-4), plant” value (650 g/ha (1 L/ha)) was 61.37 a % UNCK, the Nr damaged leaves (650 g/ha (1 L/ha)) was 63.30 a % UNCK and the Nr of larvae (650 g/ha (1 L/ha)) was 73.85 b % UNCK. The “Damage severity (1-4), plant” value (1300 g/ha (2 L/ha)) was 61.01 a % UNCK, the Nr damaged leaves (1300 g/ha (2 L/ha)) was 71.72 a % UNCK and the Nr of larvae (1300 g/ha (2 L/ha)) was 79.47 b % UNCK. For the same compound, the “Damage severity (1-4), plant” value (2600 g/ha (4 L/ha)) was 64.85 a % UNCK, the Nr damaged leaves (2600 g/ha (4 L/ha)) was 63.54 a % UNCK and the Nr of larvae (2600 g/ha (4 L/ha)) was 90.18 a % UNCK.
